Experiments:
Type in all cases: in vivo
[1] = tested on: Italian ryegrass (Lolium multiflorum); test: Test A preemergence, visual plant response rating; conditions: for Ryegrass, Italian plant response rating: 125 g ai/ha, preemergence, 0 to 100 scale, 0 no effect, 100 complete control; for Ryegrass, Italian plant response rating (0 to 100 scale): 500 g ai/ha Preemergence, approx. 10 days
How it was run: (§1)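 Greenhouse evaluation, approx. 10 days post-spray. Soil: loam + sand. Postemergence stage: 1–2 leaves, height 2–10 cm. Vehicle: non-phytotoxic solvent blend with surfactant. Score: visual injury on a 0 (no effect) to 100 (complete control) scale.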

[2] = tested on: barnyardgrass (Echinochloa crus-galli); test: Test A preemergence, visual plant response rating; conditions: for Barnyardgrass plant response rating: 125 g ai/ha, preemergence, 0 to 100 scale, 0 no effect, 100 complete control; for Barnyardgrass plant response rating (0 to 100 scale): 500 g ai/ha Preemergence, approx. 10 days
How it was run: as §1

[3] = tested on: foxtail, giant (giant foxtail, Setaria faberii); test: Test A preemergence, visual plant response rating; conditions: for Foxtail, Giant plant response rating: 125 g ai/ha, preemergence, 0 to 100 scale, 0 no effect, 100 complete control; for Foxtail, Giant plant response rating (0 to 100 scale): 500 g ai/ha Preemergence, approx. 10 days
How it was run: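 Preemergence: seeds in loam/sand blend given directed soil spray of compound in non-phytotoxic solvent with surfactant. Postemergence: plants 2–10 cm, one- to two-leaf stage, sprayed with same formulation. Visual injury rated vs untreated controls after ~10 days in greenhouse, 0 (no effect) to 100 (complete control).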

[4] = tested on: kochia (Kochia scoparia); test: Test A preemergence, visual plant response rating; conditions: for Kochia plant response rating: 125 g ai/ha, preemergence, 0 to 100 scale, 0 no effect, 100 complete control; for Kochia plant response rating (0 to 100 scale): 500 g ai/ha Preemergence, approx. 10 days
How it was run: as §1

[5] = tested on: pigweed (Amaranthus retroflexus); test: Test A preemergence, visual plant response rating; conditions: for Pigweed plant response rating: 125 g ai/ha, preemergence, 0 to 100 scale, 0 no effect, 100 complete control; for Pigweed plant response rating (0 to 100 scale): 500 g ai/ha Preemergence, approx. 10 days
How it was run: as §1

[6] = tested on: ragweed (common ragweed, Ambrosia elatior); test: Test A preemergence, visual plant response rating; conditions: for Ragweed plant response rating: 125 g ai/ha, preemergence, 0 to 100 scale, 0 no effect, 100 complete control; for Ragweed plant response rating (0 to 100 scale): 500 g ai/ha Preemergence, approx. 10 days
How it was run: as §1

[7] = tested on: Italian ryegrass (Lolium multiflorum); test: Test A postemergence, visual plant response rating; conditions: for Ryegrass, Italian plant response rating (0 to 100 scale): 500 g ai/ha, postemergence, 0 is no effect, 100 is complete control; for Ryegrass, Italian plant response rating: Postemergence, 125 g ai/ha, 0 to 100 scale (0 no effect, 100 complete control)
How it was run: as §1

[8] = tested on: barnyardgrass (Echinochloa crus-galli); test: Test A postemergence, visual plant response rating; conditions: for Barnyardgrass plant response rating (0 to 100 scale): 500 g ai/ha, postemergence, 0 is no effect, 100 is complete control; for Barnyardgrass plant response rating: Postemergence, 125 g ai/ha, 0 to 100 scale (0 no effect, 100 complete control)
How it was run: as §1

[9] = tested on: blackgrass (Alopecurus myosuroides); test: Test A postemergence, visual plant response rating; conditions: for Blackgrass plant response rating (0 to 100 scale): 500 g ai/ha, postemergence, 0 is no effect, 100 is complete control; for Blackgrass plant response rating: Postemergence, 125 g ai/ha, 0 to 100 scale (0 no effect, 100 complete control)
How it was run: as §1

[10] = tested on: corn (Zea mays); test: Test A postemergence, visual plant response rating; conditions: for Corn plant response rating (0 to 100 scale): 500 g ai/ha, postemergence, 0 is no effect, 100 is complete control; for Corn plant response rating: Postemergence, 125 g ai/ha, 0 to 100 scale (0 no effect, 100 complete control)
How it was run: as §1

[11] = tested on: foxtail, giant (giant foxtail, Setaria faberii); test: Test A postemergence, visual plant response rating; conditions: for Foxtail, Giant plant response rating (0 to 100 scale): 500 g ai/ha, postemergence, 0 is no effect, 100 is complete control; for Foxtail, Giant plant response rating: Postemergence, 125 g ai/ha, 0 to 100 scale (0 no effect, 100 complete control)
How it was run: as §1

[12] = tested on: galium (catchweed bedstraw, Galium aparine); test: Test A postemergence, visual plant response rating; conditions: for Galium plant response rating (0 to 100 scale): 500 g ai/ha, postemergence, 0 is no effect, 100 is complete control; for Galium plant response rating: Postemergence, 125 g ai/ha, 0 to 100 scale (0 no effect, 100 complete control)
How it was run: as §1

[13] = tested on: kochia (Kochia scoparia); test: Test A postemergence, visual plant response rating; conditions: for Kochia plant response rating (0 to 100 scale): 500 g ai/ha, postemergence, 0 is no effect, 100 is complete control; for Kochia plant response rating: Postemergence, 125 g ai/ha, 0 to 100 scale (0 no effect, 100 complete control)
How it was run: as §1

[14] = tested on: pigweed (Amaranthus retroflexus); test: Test A postemergence, visual plant response rating; conditions: for Pigweed plant response rating (0 to 100 scale): 500 g ai/ha, postemergence, 0 is no effect, 100 is complete control; for Pigweed plant response rating: Postemergence, 125 g ai/ha, 0 to 100 scale (0 no effect, 100 complete control)
How it was run: as §1

[15] = tested on: ragweed (common ragweed, Ambrosia elatior); test: Test A postemergence, visual plant response rating; conditions: for Ragweed plant response rating (0 to 100 scale): 500 g ai/ha, postemergence, 0 is no effect, 100 is complete control; for Ragweed plant response rating: Postemergence, 125 g ai/ha, 0 to 100 scale (0 no effect, 100 complete control)
How it was run: as §1

[16] = tested on: wheat (Triticum aestivum); test: Test A postemergence, visual plant response rating; conditions: for Wheat plant response rating (0 to 100 scale): 500 g ai/ha, postemergence, 0 is no effect, 100 is complete control; for Wheat plant response rating: Postemergence, 125 g ai/ha, 0 to 100 scale (0 no effect, 100 complete control)
How it was run: as §1

[17] = tested on: barnyardgrass (Echinochloa crus-galli); test: Test B flooded paddy test, visual plant response rating; conditions: 250 g ai/ha, Flood, applied to paddy water, 2-leaf stage, evaluated after 13 to 15 days
How it was run: (§2)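 Visual scores compare treated plants with controls after 13 to 15 days of greenhouse growth. Treatment was made into paddy water standing 3 cm above the soil, with plants at the 2-leaf stage and flooding maintained throughout.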

[18] = tested on: ducksalad (Heteranhera limosa); test: as above; conditions: 250 g ai/ha, Flood, applied to paddy water, 2-leaf stage, evaluated after 13 to 15 days
How it was run: as §2

[19] = tested on: rice (Oryza sativa); test: as above; conditions: 250 g ai/ha, Flood, applied to paddy water, 2-leaf stage, evaluated after 13 to 15 days
How it was run: as §2

[20] = tested on: sedge, umbrella (small-flower umbrella sedge, Cyperus difformis); test: as above; conditions: 250 g ai/ha, Flood, applied to paddy water, 2-leaf stage, evaluated after 13 to 15 days
How it was run: as §2

Compound | Ryegrass, Italian plant response rating [1] | Ryegrass, Italian plant response rating (0 to 100 scale) [1] | Barnyardgrass plant response rating [2] | Barnyardgrass plant response rating (0 to 100 scale) [2] | Foxtail, Giant plant response rating [3] | Foxtail, Giant plant response rating (0 to 100 scale) [3] | Kochia plant response rating [4] | Kochia plant response rating (0 to 100 scale) [4] | Pigweed plant response rating [5] | Pigweed plant response rating (0 to 100 scale) [5] | Ragweed plant response rating [6] | Ragweed plant response rating (0 to 100 scale) [6] | Ryegrass, Italian plant response rating (0 to 100 scale) [7] | Ryegrass, Italian plant response rating [7] | Barnyardgrass plant response rating (0 to 100 scale) [8] | Barnyardgrass plant response rating [8] | Blackgrass plant response rating (0 to 100 scale) [9] | Blackgrass plant response rating [9] | Corn plant response rating (0 to 100 scale) [10] | Corn plant response rating [10] | other results
C=CCc1ccccc1C(=NOC)c1c(O)c(C)nn(C)c1=O [Compound 122] | 50 | 60 | 0 | 30 | 10 | 80 | 0 | 10 | 20 | 90 | 10 | 50 | 90 | 70 | 60 | 20 | 40 | 20 | 10 | 0 | Foxtail, Giant plant response rating (0 to 100 scale) [11]: 70; Foxtail, Giant plant response rating [11]: 50; Galium plant response rating (0 to 100 scale) [12]: 80; Galium plant response rating [12]: 60; Kochia plant response rating (0 to 100 scale) [13]: 50; Kochia plant response rating [13]: 40; Pigweed plant response rating (0 to 100 scale) [14]: 70; Pigweed plant response rating [14]: 60; Ragweed plant response rating (0 to 100 scale) [15]: 60; Ragweed plant response rating [15]: 50; Wheat plant response rating (0 to 100 scale) [16]: 30; Wheat plant response rating [16]: 0; Plant response rating, Barnyardgrass (0 to 100 scale, 0 is no effect, 100 is complete control) [17]: 0; Plant response rating, Ducksalad (0 to 100 scale, 0 is no effect, 100 is complete control) [18]: 0; Plant response rating, Rice (0 to 100 scale, 0 is no effect, 100 is complete control) [19]: 0; Plant response rating, Sedge, Umbrella (0 to 100 scale, 0 is no effect, 100 is complete control) [20]: 0
CO/N=C(\c1cccc(C(F)(F)F)c1)c1c(O)c(C)nn(C)c1=O [Compound 71] | 0 | 20 | 0 | 0 | 0 | 0 | 0 | 0 | 20 | 60 | 10 | 30 | 40 | 40 | 30 | 10 | 50 | 20 | 10 | 0 | Foxtail, Giant plant response rating (0 to 100 scale) [11]: 20; Foxtail, Giant plant response rating [11]: 10; Galium plant response rating (0 to 100 scale) [12]: 80; Galium plant response rating [12]: 60; Kochia plant response rating (0 to 100 scale) [13]: 60; Kochia plant response rating [13]: 50; Pigweed plant response rating (0 to 100 scale) [14]: 70; Pigweed plant response rating [14]: 60; Ragweed plant response rating (0 to 100 scale) [15]: 60; Ragweed plant response rating [15]: 20; Wheat plant response rating (0 to 100 scale) [16]: 40; Wheat plant response rating [16]: 20; Plant response rating, Barnyardgrass (0 to 100 scale, 0 is no effect, 100 is complete control) [17]: 0; Plant response rating, Ducksalad (0 to 100 scale, 0 is no effect, 100 is complete control) [18]: 0; Plant response rating, Rice (0 to 100 scale, 0 is no effect, 100 is complete control) [19]: 10; Plant response rating, Sedge, Umbrella (0 to 100 scale, 0 is no effect, 100 is complete control) [20]: 0
CO/N=C(/c1ccccc1F)c1c(O)c(C)nn(C)c1=O [Compound 34] | 10 | 60 | 0 | 0 | 0 | 40 | 0 | 0 | 0 | 10 | 20 | 50 | 60 | 20 | 20 | 0 | 10 | 0 | 0 | 0 | Foxtail, Giant plant response rating (0 to 100 scale) [11]: 10; Foxtail, Giant plant response rating [11]: 0; Galium plant response rating (0 to 100 scale) [12]: 70; Galium plant response rating [12]: 40; Kochia plant response rating (0 to 100 scale) [13]: 20; Kochia plant response rating [13]: 10; Pigweed plant response rating (0 to 100 scale) [14]: 20; Pigweed plant response rating [14]: 20; Ragweed plant response rating (0 to 100 scale) [15]: 50; Ragweed plant response rating [15]: 40; Wheat plant response rating (0 to 100 scale) [16]: 20; Wheat plant response rating [16]: 20; Plant response rating, Barnyardgrass (0 to 100 scale, 0 is no effect, 100 is complete control) [17]: 0; Plant response rating, Ducksalad (0 to 100 scale, 0 is no effect, 100 is complete control) [18]: 0; Plant response rating, Rice (0 to 100 scale, 0 is no effect, 100 is complete control) [19]: 0; Plant response rating, Sedge, Umbrella (0 to 100 scale, 0 is no effect, 100 is complete control) [20]: 0
